# According to patent US11629171B2, “Beta-hairpin peptidomimetics” (POLYPHOR AG, priority 2017, dated 2023):
# Where a SMILES comes first, the peptide text is derived from it. Bridges are numbered along the chain shown (N, C = ends). Roman numbers before positions name the chains, in order. [ ]: non-standard residue; d: D form. The star is where a group is joined. Tle = CC(C)(C)[C@H](N)C(=O)O; Hiv = CC(C)[C@H](O)C(=O)O; dDab = NCC[C@@H](N)C(=O)O; hSer = N[C@@H](CCO)C(=O)O; NHCH(CH2OH)2 = OCC(CO)N*; Orn = NCCC[C@H](N)C(=O)O; Dab = NCC[C@H](N)C(=O)O; Nva = CCC[C@H](N)C(=O)O; Dap = NC[C@H](N)C(=O)O
# Key:
# Assay type in all cases: cell-based
# [1] = test system: Acinetobacter baumannii 872842; conditions: 872842
# Summary of the method: (§1)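 Broth microdilution per CLSI; MH-II (cation-adjusted) + 0.002% P-80 final; ~10^6 CFU/mL inoculum; 2-fold peptide series; 35° C, 18-20 h; MIC = no visible growth, μg/mL.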
# [2] = test system: Acinetobacter baumannii DSM 30008; conditions: DSM 30008
# Summary of the method: as §1
# [3] = test system: Enterobacter cloacae 848840; conditions: 848840
# Summary of the method: as §1
# Escherichia coli 926415 = conditions: 926415
# Summary of the method: as §1
# [4] = test system: Escherichia coli ATCC 25922; conditions: ATCC 25922
# Summary of the method: as §1
# [5] = test system: Klebsiella pneumoniae 968733; conditions: 968733
# Summary of the method: as §1
# [6] = test system: Klebsiella pneumoniae SSI #3010; conditions: SSI #3010
# Summary of the method: as §1
# [7] = test system: Pseudomonas aeruginosa ATCC 27853; conditions: ATCC 27853
# Summary of the method: as §1
# [8] = test system: human red blood cells (hRBC); assay: Hemolysis; conditions: red cells of human, 1 h, 200
# Summary of the method: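 Percent lysis of human red cells was derived from OD540 of the supernatant, referenced to 2% Triton X-100, after a 1 h, 37° C incubation of 20% (v/v) cells with 200 μg/mL peptide.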
SMILES,MIC [1] [µg/mL],Acinetobacter baumannii DSM 30008 MIC [2] [µg/mL],MIC [3] [µg/mL],MIC (Escherichia coli 926415) [µg/mL],Escherichia coli ATCC 25922 MIC [4] [µg/mL],MIC [5] [µg/mL],Klebsiella pneumoniae SSI #3010 MIC [6] [µg/mL],Pseudomonas aeruginosa ATCC 27853 MIC [7] [µg/mL],MIC [2] [µg/mL],MIC [4] [µg/mL],MIC [6] [µg/mL],MIC [7] [µg/mL],Hemolysis at 200 μg/mL [8] [%]
CC(=O)N[C@H](C(=O)N[C@H]1CSSC[C@@H](C(=O)N[C@@H](CO)C(N)=O)NC(=O)[C@H](C(C)(C)C)NC(=O)[C@H](CCC(=O)O)NC(=O)[C@H](Cc2c[nH]c3ccccc23)NC(=O)[C@H](CCO)NC(=O)[C@@H](CCN)NC(=O)[C@H](CCC(=O)N[C@@H](CCN)C(=O)N[C@H](C(=O)N[C@@H](CN)C(=O)N[C@H]2CCNC(=O)[C@H]([C@@H](C)O)NC(=O)[C@H](CCN)NC(=O)[C@H](CCN)NC(=O)[C@H](CC(C)C)NC(=O)[C@@H](CC(C)C)NC(=O)[C@H](CCN)NC2=O)[C@@H](C)O)NC(=O)[C@H](CCN)NC(=O)[C@H](Cc2ccc(O)cc2)NC1=O)C(C)C [Ex. 156] (I: Ac-VCY[Dab]E[dDab][hSer]WE[Tle]CS-NH2 / II: [Dab]T[Dap][Dab][Dab][dL]L[Dab][Dab]T; disulfide I:2-I:11; amide I:5-II:N; lactam II:4-II:C),0.125,,0.125,0.125,,0.25,,,0.0625,0.03125,0.125,0.125,<1
CC(C)C[C@@H]1NC(=O)[C@@H](CC(C)C)NC(=O)[C@H](CCN)NC(=O)[C@@H](NC(=O)[C@H](CN)NC(=O)[C@@H](NC(=O)[C@H](CCN)NC(=O)CC[C@@H]2NC(=O)[C@@H](CCN)NC(=O)CNC(=O)[C@H](CCN)NC(=O)[C@H](Cc3ccc(O)cc3)NC(=O)[C@@H](NC(=O)[C@@H](O)C(C)C)CSSC[C@@H](C(=O)NC(CO)CO)NC(=O)[C@H](C(C)(C)C)NC(=O)[C@H](CO)NC(=O)[C@H](Cc3c[nH]c4ccccc34)NC2=O)[C@@H](C)O)CCNC(=O)[C@H]([C@@H](C)O)NC(=O)[C@H](CCN)NC(=O)[C@H](CCN)NC1=O [Ex. 174] (I: H-[Hiv]CY[Dab]G[dDab]EWS[Tle]C-{NHCH(CH2OH)2} / II: [Dab]T[Dap][Dab][Dab][dL]L[Dab][Dab]T; disulfide I:2-I:11; amide I:7-II:N; lactam II:4-II:C),0.125,,0.25,0.125,,0.25,,,0.0625,0.0625,0.0625,0.125,<1
"CC(=O)N[C@H](C(=O)N[C@H]1CCCNC(=O)[C@@H](Cc2ccc(O)cc2)NC(=O)[C@H](C(C)(C)C)NC(=O)[C@H](CO)NC(=O)[C@H](Cc2c[nH]c3ccccc23)NC(=O)[C@H](CCO)NC(=O)[C@@H](CCN)NC(=O)[C@H](CCC(=O)N[C@@H](CCN)C(=O)N[C@H](C(=O)N[C@@H](CN)C(=O)N[C@H]2CCNC(=O)[C@H]([C@@H](C)O)NC(=O)[C@H](CCN)NC(=O)[C@H](CCN)NC(=O)[C@H](CC(C)C)NC(=O)[C@@H](CC(C)C)NC(=O)[C@H](CCN)NC2=O)[C@@H](C)O)NC(=O)[C@H](CO)NC(=O)[C@H](Cc2ccc(O)cc2)NC1=O)C(C)C [Ex. 26] (I: Ac-V[Orn]YSE[dDab][hSer]WS[Tle][dY] / II: [Dab]T[Dap][Dab][Dab][dL]L[Dab][Dab]T; lactam I:2-I:C, II:4-II:C; amide I:5-II:N)",0.125,,0.25,0.125,,0.25,,,0.03125,0.0625,0.125,0.25,1

# Further lines, with some results ahead:
MIC [1] [µg/mL],Acinetobacter baumannii DSM 30008 MIC [2] [µg/mL],MIC [3] [µg/mL],MIC (Escherichia coli 926415) [µg/mL],Escherichia coli ATCC 25922 MIC [4] [µg/mL],MIC [5] [µg/mL],Klebsiella pneumoniae SSI #3010 MIC [6] [µg/mL],Pseudomonas aeruginosa ATCC 27853 MIC [7] [µg/mL],MIC [2] [µg/mL],MIC [4] [µg/mL],MIC [6] [µg/mL],MIC [7] [µg/mL],SMILES,Hemolysis at 200 μg/mL [8] [%]
1,0.5,2,4,0.0625,8,0.125,0.25,,,,,"CC(=O)N[C@H](C(=O)N[C@H]1CNC(=O)CC[C@@H](C(=O)N[C@@H](CO)C(N)=O)NC(=O)[C@H](C(C)C)NC(=O)[C@H](CO)NC(=O)[C@H](Cc2c[nH]c3ccccc23)NC(=O)[C@H](CO)NC(=O)[C@@H](CCN)NC(=O)[C@H](CCC(=O)N[C@@H](CCN)C(=O)N[C@H](C(=O)N[C@@H](CN)C(=O)N[C@H]2CCNC(=O)[C@H]([C@@H](C)O)NC(=O)[C@H](CCN)NC(=O)[C@H](CCN)NC(=O)[C@H](CC(C)C)NC(=O)[C@@H](CC(C)C)NC(=O)[C@H](CCN)NC2=O)[C@@H](C)O)NC(=O)[C@H](CCN)NC(=O)[C@H](Cc2ccc(O)cc2)NC1=O)C(C)C [Ex. 320] (I: Ac-V[Dap]Y[Dab]E[dDab]SWSVES-NH2 / II: [Dab]T[Dap][Dab][Dab][dL]L[Dab][Dab]T; lactam I:2-I:11, II:4-II:C; amide I:5-II:N)",<1
0.125,0.0625,0.125,0.25,0.0625,0.25,0.0625,0.125,,,,,CC(=O)N[C@H](C(=O)N[C@H]1CSSC[C@@H](C(=O)N[C@@H](CO)C(N)=O)NC(=O)[C@H](C(C)C)NC(=O)[C@H](CO)NC(=O)[C@H](Cc2c[nH]c3ccccc23)NC(=O)[C@H](CCC(=O)N[C@@H](CCN)C(=O)N[C@H](C(=O)N[C@@H](CN)C(=O)N[C@H]2CCNC(=O)[C@H]([C@@H](C)O)NC(=O)[C@H](CCN)NC(=O)[C@H](CCN)NC(=O)[C@H](CC(C)C)NC(=O)[C@@H](CC(C)C)NC(=O)[C@H](CCN)NC2=O)[C@@H](C)O)NC(=O)[C@@H](CCN)NC(=O)[C@H](CCN)NC(=O)[C@H](CO)NC(=O)[C@H](Cc2ccc(O)cc2)NC1=O)C(C)C [Ex. 356] (I: Ac-VCYS[Dab][dDab]EWSVCS-NH2 / II: [Dab]T[Dap][Dab][Dab][dL]L[Dab][Dab]T; disulfide I:2-I:11; amide I:7-II:N; lactam II:4-II:C),2
0.0625,,0.5,0.125,,0.125,,,0.0625,0.03125,0.125,0.25,CCC[C@@H]1NC(=O)[C@H](CO)NC(=O)[C@H](Cc2c[nH]c3ccccc23)NC(=O)[C@H](CCN)NC(=O)[C@@H](CCN)NC(=O)[C@H](CCC(=O)N[C@@H](CCN)C(=O)N[C@H](C(=O)N[C@@H](CN)C(=O)N[C@H]2CCNC(=O)[C@H]([C@@H](C)O)NC(=O)[C@H](CCN)NC(=O)[C@H](CCN)NC(=O)[C@H](CC(C)C)NC(=O)[C@@H](CC(C)C)NC(=O)[C@H](CCN)NC2=O)[C@@H](C)O)NC(=O)[C@H](CO)NC(=O)[C@H](Cc2ccc(O)cc2)NC(=O)[C@@H](NC(=O)[C@@H](NC(C)=O)C(C)C)CSSC[C@@H](C(=O)N[C@@H](CO)C(N)=O)NC1=O [Ex. 264] (I: Ac-VCYSE[dDab][Dab]WS[Nva]CS-NH2 / II: [Dab]T[Dap][Dab][Dab][dL]L[Dab][Dab]T; disulfide I:2-I:11; amide I:5-II:N; lactam II:4-II:C),<1
